Entries after “also recorded” stand apart in the source; their conditions may differ. Non-standard residues stand in square brackets, D forms with d. Residues, ends and D or L forms follow the SMILES beside them. *: point of attachment. Myristoyl = CCCCCCCCCCCCCC(=O)*; NH(CH2)4NH2 = NCCCCN*
Columns and labels:
human cells Kasumi = assay: MTT cytotoxicity assay, Kasumi; type: cell-based; conditions: for IC50: 24 h
Excerpt: (§1) The two human acute lymphoblastic leukemia cells K562 and Kasumi, two human breast adenocarcinoma cells MCF7 and MDA-MB-231, human hepatoma cell HepG-2, human lung adenocarcinoma cell A549, human gastric cancer cell SGC-7901, human colon cancer cell HCT-116, human ovarian cancer cell line SKOV3, or human lung epithelial normal cell 2B were obtained from Beyotime Biotechnology and utilized to test the cytotoxicity of compounds by MTT assays as previous study. The anti-inflammatory effect of the compounds was detected by the influence on the increase in the level of nitric oxide caused by lipopolysaccharide (LPS) based on the classic Griess method. RAW 264.7 cells (Shanghai Institutes for Biological Science) were seeded in 96-well plates and incubated for 24 h. Then, cells were treated with compounds 29, 29a, 31, and 31a (0-80 μM) for 30 min, followed by co-treatment with LPS ([…]) for another 24 h. The Nitric Oxide assay kit with Griess reagents (Beyotime, Lot: S0021, Shanghai, China) was used to examine cellular supernatant nitrite accumulation, which represents cellular NO levels. The OD value of 540 nm absorbance was detected with a microplate reader. Their authentication in the laboratory was performed regularly based on morphology and gene/protein expression. The tested micro-organisms including Gram-negative bacteria E. coli ATCC 35218 and Pseudomonas aeruginosa ATCC 27853, and Gram-positive bacteria Staphylococcus aureus ATCC 29213 and B. subtilis ATCC 6633, and fungi Candida albicans, Rhizoctonia solani and Aspergillus fumigatus were treated with different concentrations of compounds (1 μM, 10 μM, 100 μM) using Bauer-Kirby disk diffusion method to evaluate the antimicrobial activities.

[1] = test system: human lung adenocarcinoma cell A549; assay: MTT cytotoxicity assay, A549; type: cell-based; conditions: for IC50: 24 h
How it was run: (§2)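 Cytotoxicity in Kasumi, HepG-2, SGC-7901 and normal lung epithelial 2B cells, among other human tumour lines, was measured by MTT assay.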

[2] = test system: human acute lymphoblastic leukemia cells K562; assay: cells; type: cell-based; conditions: 24 h
How it was run: (§3)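 MTT read-out of viability; cancer lines plus normal 2B epithelial cells. Lines authenticated by morphology, gene/protein expression.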

[3] = test system: human breast adenocarcinoma cells MCF7; assay: cells; type: cell-based; conditions: 24 h
How it was run: as §3

[4] = test system: human breast adenocarcinoma cells MDA-MB-231; assay: cells; type: cell-based; conditions: 24 h
How it was run: as §2

[5] = test system: human colon cancer cell HCT-116; assay: cells; type: cell-based; conditions: 24 h
How it was run: as §2

[6] = test system: human gastric cancer cell SGC-7901; assay: cells; type: cell-based; conditions: 24 h
How it was run: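 Cells were exposed to compounds and viability was then quantified by MTT assay, per an earlier published method. Panel included leukemia Kasumi, hepatoma HepG-2, gastric SGC-7901 and normal lung epithelial 2B cells.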

[7] = test system: human hepatoma cell HepG-2; assay: cells; type: cell-based; conditions: 24 h
How it was run: (§4)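 Cytotoxicity against the listed human lines (Kasumi leukemia, HepG-2 hepatoma, SGC-7901 gastric, normal lung epithelial 2B) measured by MTT assay following a previously described protocol. Cell identity checked regularly by morphology and gene/protein expression.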

[8] = test system: human lung epithelial normal cell 2B; assay: cells; type: cell-based; conditions: 24 h
How it was run: as §4

[9] = test system: S. brevitalea DSM 7029 wild type; assay: Growth curve of DSM 7029 wild type with compounds (Bioscreen C); type: cell-based, Schlegelella brevitalea DSM 7029; conditions: CYMG medium; for effect on growth of DSM 7029 wild type in words: compound 0.1 μg/μL, OD600 every hour for 42 h, Bioscreen C
Protocol: (§5) The growth curve was tested by Bioscreen C (Labsystems, Finland) as follow. Overnight culture was inoculated into 400 μL fresh CYMG medium in the ratio of 1:100 (the concentration of compounds was 0.1 μg/μL) and shook in normal speed. The OD600 value was gained in every hour for 42 h in total. Biofilm formation was measured at 18 h and 36 h respectively, as reported previously. In brief, the free-floating cells were removed, and the microtitre plate was washed with PBS (pH 7.4) after incubation for 18 h and 36 h. The biofilm was stained by adding 200 µL of crystal violet (0.1%) solution. Crystal violet solution was removed after 15 min and 200 µL of ethanol (95%) was added. The absorbance at OD600 was read using a microplate reader (Infinite M200, Tecan, Männedorf, Switzerland). Meanwhile, free-floating cells were used to test the secretion of pigment. The bacteria were removed and the supernatant was measured at OD600.

[10] = test system: S. brevitalea DSM 7029 wild type; assay: Biofilm formation of DSM 7029 wild type with compounds (crystal violet); type: cell-based, Schlegelella brevitalea DSM 7029; conditions: for effect on biofilm formation of DSM 7029 wild type in words: crystal violet staining
Protocol: as §5

[11] = Chemical stability of 1 in MeOH (oxidation to 2); type: physicochemical; conditions: purified 1 dissolved in MeOH for 3 days
[12] = test system: methionyl-tRNA formyltransferase (Fmt); assay: In vitro transformylation assay with Fmt; type: biochemical, Schlegelella brevitalea DSM 7029; conditions: 1 mM substrate, 25 μM Fmt, 1.5 mM N5,N10-methenylH4F, 50 mM HEPES pH 7.5, 30 °C, 4 h
Protocol: The in vitro assay of formyltransferase was tested. In brief, the formyl-donor co-substrate intermediate N^5, N^10-methenylH4F was first synthesized as follow: 14 mg of N^5-fH4F was dissolved in 3 mL of water and was converted to N^5, N^10-methenylH^4F through addition of 0.1 M HCl, until pH 1.9 was reached. The solution was then brought to a final volume of 4.4 mL with water and continually incubated at room temperature for 4 h. Then, the transformylation assay was setup in a 50 μL volume, in the presence of 50 mM HEPES buffer pH 7.5, 1 mM substrates (compounds 1, 1a, 13a), 1.5 mM N^5, N^10-methenylH4F, and 25 μM Fmt (35 kDa). Before the addition of the compounds and the enzyme, the intermediate N^5, N^10-methenylH4F was preincubated in the reaction buffer at 30 °C for 30 min, to permit the final pH-dependent conversion to N^10-fH4F. After the addition of the compounds and the enzyme, the reaction was allowed to proceed for 4 h at 30 °C, then ceased by the addition of 2 μL FA, and analyzed via HPLC‒MS. The condition for 1: 0–3 min, 20% ACN; 3–18 min, 20–60% ACN; 18.1 min, 95% ACN; 18.1–22 min, 95% ACN; 22.1 min, 20% ACN; 22.1–25 min, 20% ACN, ACN and H2O contained 0.1% FA; detection by UV spectroscopy at 200–400 nm. […]

tumor lines = assay: MTT cytotoxicity assay, statements on the whole panel; type: cell-based, human; conditions: MTT assay, panel of tumor cell lines
Excerpt: as §1

native host DSM 7029 = assay: Inhibition zone test on the native host DSM 7029; type: cell-based, Schlegelella brevitalea DSM 7029; conditions: same method as for the seven tested strains
Excerpt: as §1, with “The tested micro-organisms including Gram-negative bacteria E. coli ATCC 35218 and Pseudomonas aeruginosa ATCC 27853, and Gram-positive bacteria Staphylococcus aureus ATCC 29213 and B. subtilis ATCC 6633, and fungi Candida albicans, Rhizoctonia solani and Aspergillus fumigatus were treated with different concentrations of compounds (1 μM, 10 μM, 100 μM) using Bauer-Kirby disk diffusion method to evaluate the antimicrobial activities.” left out

HepG2 cells [13] = assay: Extracellular and intracellular compound in HepG2 cells (LC-MS); type: in vitro ADME, human; conditions: 3 h
Protocol: (§6) Comparing the concentration of compounds (7, 10, 10a) in extracellular and intracellular after the HepG2 cell line dealt with compounds. HepG2 cells were plated in six-well plates at a density of 1.5 × 10^5 cells/well and grew overnight. After cell treated with compounds (5 μg/mL) for 3 h, the compounds were extracted with MeOH for cells culture medium and cells separately as followed the reported method. The compounds were quantified by LC‒MS (5%‒95% ACN in 15 min). The cell numbers of HepG2 with the compounds treatments was determined. […]
(§7) To determine whether the difference in bioactivity of products (with or without Put moiety) is due to variations in cellular uptake, we treated hepatoma cell line HepG2 with compounds 7 (C12 acyl), 10 (C14 acyl), and 10a (C14 acyl and without Put) (Supplementary Fig. 33c). The cells were treated for 3 h, and then culture medium and cells were extracted separately. LC-MS was used to detect and quantify the compounds.
(§8) At lower concentrations (5000 ng/mL, and 10,000 ng in total for each group), and […]
(§9) may be contributing to the differences in antitumor activity (Supplementary Fig. 33b).
(§10) This could be due to differences in the speed of cellu lar uptake or differences in drug metabolism rate, requiring further experimental investigation.

HepG2 cells [14] = assay: Cell numbers of HepG2 after compound treatment; type: cell-based, human; conditions: HepG2, 1.5 × 10^5 cells/well plated, compound 5 μg/mL, 3 h; mean of n = 3
Protocol: as §6, §7, §8, §9, §10

[15] = Solubility in solvents (observation); type: physicochemical; conditions: observation in water, methanol, acetonitrile, DMSO
Excerpt: Putrescine is also a precursor of some specialized compounds, such as industrial polyamide nylon 4,6[33] and siderophore alcaligin[55]. To clarify the function of the Put moiety of glidonins, we synthesized lipopeptide 10a without the Put group.

[16] = relative to wild type treated with H2O = 100%, crystal violet 0.1%, OD600, mean of n = 3

Row | Compound | IC50 (human cells Kasumi) | IC50 [1] | IC50 [2] | IC50 [3] | IC50 [4] | IC50 [5] | IC50 [6] | IC50 [7] | IC50 [8] | effect on growth of DSM 7029 wild type in words [9] | effect on biofilm formation of DSM 7029 wild type in words [10] | other results
1 | CSCC[C@@H](N)C(=O)N[C@H](CC(N)=O)C(=O)N1CCC[C@H]1C(=O)N[C@H](C(=O)N[C@H](Cc1ccccc1)C(=O)N1CCC[C@H]1C(=O)N[C@@H](Cc1c[nH]c2ccccc12)C(=O)N[C@@H](C(=O)N[C@@H](C)C(=O)N[C@H](C)C(=O)N[C@@H](CO)C(=O)N[C@@H](C)C(=O)NCCCCN)C(C)C)C(C)C [Compound 1, Glidonin A] (H-[dM][dN]PV[dF]PW[dV]A[dA]SA-{NH(CH2)4NH2}) | 18.3 ± 1.22 µM | 7.2 ± 0.79 µM | > 20 µM | > 20 µM | > 20 µM | > 20 µM | > 20 µM | > 20 µM | > 20 µM | no effect | less effect on biofilm formation | cytotoxic activity against Kasumi in words (human cells Kasumi; MTT assay): moderate activities; cytotoxic / antitumor activity against A549 in words ([1]; MTT assay): moderate activities; biofilm formation 18 h, Average [10, 16]: 98.1978%; biofilm formation 36 h, Average [10, 16]: 87.2902%; chemical stability: change of 1 to the Met(O) product 2 [11]: without changing to 2; formylation by Fmt, formyl product by HPLC-MS [12]: higher than control
2 | CCCCCCCCCCCCCC(=O)N[C@H](CCSC)C(=O)N[C@H](CC(N)=O)C(=O)N1CCC[C@H]1C(=O)N[C@H](C(=O)N[C@H](Cc1ccccc1)C(=O)N1CCC[C@H]1C(=O)N[C@@H](Cc1c[nH]c2ccccc12)C(=O)N[C@@H](C(=O)N[C@@H](C)C(=O)N[C@H](C)C(=O)N[C@@H](CO)C(=O)N[C@@H](C)C(=O)NCCCCN)C(C)C)C(C)C [Compound 10, Glidonin J] (Myristoyl-[dM][dN]PV[dF]PW[dV]A[dA]SA-{NH(CH2)4NH2}) | 1.39 µM | 7.15 ± 0.47 µM | 7.2 ± 0.79 µM | > 20 µM | 7.2 ± 0.79 µM | > 20 µM | > 20 µM | 6.68 µM | 11.8 ± 0.15 µM | weak inhibition of growth; also recorded: obviously inhibit the growth | increased biofilm formation | cytotoxic / antitumor activity in words (tumor lines): broad-spectrum cytotoxicity; inhibition of native host DSM 7029, inhibition zone method (native host DSM 7029): no inhibition; OD600 of wild type DSM 7029 with addition of compounds ([9]; control OD600 0.6): 0.4; total quantities (intracellular plus extracellular) in words (HepG2 cells [13]; HepG2, 5000 ng/mL, compared to 10a): lower total quantities; Intracellular compound, Average (HepG2 cells [13]; HepG2, six-well plates, 5 μg/mL (10,000 ng in total), cells extracted with MeOH, mean of n = 3): 6.078 ng; Extracellular compound, Average (HepG2 cells [13]; HepG2, six-well plates, 5 μg/mL (10,000 ng in total), culture medium extracted with MeOH, mean of n = 3): 1078.84 ng; The cell numbers, Average (HepG2 cells [14]): 1303333; solubility in words [15]: easily soluble in water, methanol and acetonitrile

Reference: article PMC10587159, “Biosynthesis and engineering of the nonribosomal peptides with a C-terminal putrescine” (Nature Communications, 2023)
